According to patent US20230321251A1, “LIPOSOME FORMULATION CONTAINING ANTIBACTERIAL AGENT” (priority 2020, published 2023):
≈ marks a conversion by molar mass, not a printed value. Where “and” joins values, the source holds several entries; their conditions need not be identical. Identical values can stand only once.

How the values were obtained:
[1] = system: S. aureus VRS1; assay: In vitro antibacterial activity (MIC), agar plate dilution; type: cell-based, Staphylococcus aureus; conditions: for minimum inhibitory concentration (MIC): S. aureus VRS1, 1000 cfu/spot
Protocol: (§1) A minimum inhibitory concentration was measured as in vitro antibacterial activity. The minimum inhibitory concentration (MIC: μg/ml) was measured according to the standard method of Japanese Society of Chemotherapy, by an agar plate dilution method using 1000 cfu/spot as an inoculum amount and a susceptibility disk medium as a test medium.
(§2) In the tables, a unit of a numerical value of inhibitory activity is μg/ml. In addition, in the tables, S. aureus represents Staphylococcus aureus and E. faecalis represents Gram-positive group D streptococci (enterococci) that are resident in a normal bacterial flora of a human intestinal tract, and can be causative bacteria of endocarditis and the like after surgery.

[2] = system: S. aureus ATCC700787; assay: as above; type: cell-based, Staphylococcus aureus
Protocol: as §1, §2

[3] = system: S. aureus ATCC25923; assay: as above; type: cell-based, Staphylococcus aureus
Protocol: as §1, §2

[4] = system: E. faecium SR7940; assay: as above; type: cell-based; conditions: for minimum inhibitory concentration (MIC): E. faecium SR7940, 1000 cfu/spot
Protocol: as §1, §2

[5] = system: E. faecium SRM1101; assay: as above; type: cell-based
Protocol: as §1, §2

[6] = system: E. faecalis SR1004; assay: as above; type: cell-based; conditions: for minimum inhibitory concentration (MIC): E. faecalis SR1004, 1000 cfu/spot
Protocol: as §1, §2

[7] = system: E. faecalis SR7914; assay: as above; type: cell-based; conditions: for minimum inhibitory concentration (MIC): E. faecalis SR7914, 1000 cfu/spot
Protocol: as §1, §2

[8] = Plasma concentration of active ingredient after intravenous administration (PK parameters)
Protocol: (2) Plasma Concentration of Active Ingredient after Administration of Liposome Formulation
1) Animals used: ICR mice were used.
2) Breeding conditions: The mice were allowed to freely take chow and sterilized tap water.
3) Dose and grouping setting: A predetermined dose was intravenously administered. The intravenous dose was 5 mg/kg (n=3).
4) Formulation of dosing solution: The dosing solution was administered as a 5% glucose solution.
5) Administration method: Administration was performed via the tail vein through a syringe with an injection needle.
6) Evaluation item: Blood was collected over time, and the plasma concentration of the compound of the present invention was measured using LC/MS/MS.
7) Parameter analysis: For the plasma concentration of the compound of the present invention, area under the plasma concentration-time curve (AUC), systemic clearance (CLtot), elimination half-life (t½), and steady state distribution volume (Vdss) of the compound of the present invention were calculated by non-compartmental model analysis.

[9] = Tissue distribution test (plasma, liver, kidney, lung); conditions: ICR mice; for concentration at 0.5 h / concentration at 2 h / concentration at 24 h / Kp at 0.5 h / Kp at 2 h / Kp at 24 h: ICR, mouse, in vivo, iv, 5 mg/kg; for Kidney Concentration / Liver Concentration / Lung Concentration / Plasma Concentration / Kidney Kp / Liver Kp / Lung Kp: iv 5 mg/kg
Protocol: (3) Tissue Distribution of Active Ingredient after Administration of Liposome Formulation
(Tissue Distribution Test)
The compound of the present invention was intravenously administered at a dose of 5 mg/kg to ICR mice. […] Then, the liver, kidney, and lung were removed, and a 25% homogenate was prepared with distilled water. The obtained blood was centrifuged, and plasma was then obtained. Thereafter, each sample was measured using LC/MS/MS. The concentration value ratio (each tissue/plasma) obtained was used as a tissue Kp value.

[10] = ICR, mouse, in vivo, iv, 5 mg/kg
[11] = ICR mice, intravenous 5 mg/kg, plasma

## CCCCCCCCCCNCCN[C@@]1(C)C[C@H](O[C@H]2[C@H](Oc3c4cc5cc3Oc3ccc(cc3Cl)[C@@H](O)[C@@H]3NC(=O)[C@H](NC(=O)[C@@H]5NC(=O)[C@H](CC(N)=O)NC(=O)C(NC(=O)[C@@H](CC(C)C)NC)[C@H](O)c5ccc(c(Cl)c5)O4)c4ccc(O)c(c4)-c4c(cc(O)c(CNCP(=O)(O)O)c4O)[C@@H](C(=O)O)NC3=O)O[C@H](CO)[C@@H](O)[C@@H]2O)O[C@@H](C)[C@H]1O (some centres unmarked) [Telavancin drug substance, telavancin]
[1]
  minimum inhibitory concentration (MIC): 2 µg/mL (≈ 1.14 µM)
[1]; Staphylococcus aureus, VRS1, read-out: minimum inhibitory concentration (MIC), S. aureus VRS1, 1000 cfu/spot
  MIC: 4 µg/mL (≈ 2.28 µM)
[2]; Staphylococcus aureus, ATCC700787, read-out: minimum inhibitory concentration (MIC)
  MIC: 1 µg/mL (≈ 0.57 µM)
[3]; S. aureus ATCC25923, 1000 cfu/spot
  minimum inhibitory concentration (MIC): 0.25 µg/mL (≈ 0.142 µM)
[3]; Staphylococcus aureus, ATCC25923, read-out: minimum inhibitory concentration (MIC), S. aureus ATCC25923, 1000 cfu/spot
  MIC: 0.5 µg/mL (≈ 0.285 µM)
[4]
  minimum inhibitory concentration (MIC): 2 µg/mL (≈ 1.14 µM)
[4]; Enterococcus faecium, SR7940, read-out: minimum inhibitory concentration (MIC), E. faecium SR7940, 1000 cfu/spot
  MIC: 4 µg/mL (≈ 2.28 µM)
[5]; Enterococcus faecium, SRM1101, read-out: minimum inhibitory concentration (MIC)
  MIC: 4 µg/mL (≈ 2.28 µM)
[6]
  minimum inhibitory concentration (MIC): 0.5 µg/mL (≈ 0.285 µM)
[6]; Enterococcus faecalis, SR1004, read-out: minimum inhibitory concentration (MIC), E. faecalis SR1004, 1000 cfu/spot
  MIC: 1 µg/mL (≈ 0.57 µM)
[7]
  minimum inhibitory concentration (MIC): 2 µg/mL (≈ 1.14 µM)
[7]; Enterococcus faecalis, SR7914, read-out: minimum inhibitory concentration (MIC), E. faecalis SR7914, 1000 cfu/spot
  MIC: 4 µg/mL (≈ 2.28 µM)
[8]; [10]
  AUC(0-inf): 57200 ± 12800 ng·h/mL
  clearance: 1.52 ± 0.32 mL/min/kg
  half-life: 2.7 ± 2.7 h
[9]; Kidney Concentration, 0.5 hour after administration
  concentration at 0.5 h: 19000 ± 4110 ng/mL
[9]; Kidney Concentration, 2 hours after administration
  concentration at 2 h: 12700 ± 2470 ng/mL
[9]; Kidney Concentration, 24 hours after administration
  concentration at 24 h: 5930 ± 1600 ng/mL
[9]; Kidney Kp, kidney/plasma concentration ratio, 0.5 hour
  Kp at 0.5 h: 1.05 ± 0.23
[9]; Kidney Kp, kidney/plasma concentration ratio, 2 hours
  Kp at 2 h: 1.64 ± 0.12
[9]; Kidney Kp, kidney/plasma concentration ratio, 24 hours
  Kp at 24 h: 49.9
[9]; Liver Concentration, 0.5 hour after administration
  concentration at 0.5 h: 3780 ± 201 ng/mL
[9]; Liver Concentration, 2 hours after administration
  concentration at 2 h: 4050 ± 256 ng/mL
[9]; Liver Concentration, 24 hours after administration
  concentration at 24 h: 2340 ± 465 ng/mL
[9]; Liver Kp, liver/plasma concentration ratio, 0.5 hour
  Kp at 0.5 h: 0.21 ± 0.01
[9]; Liver Kp, liver/plasma concentration ratio, 2 hours
  Kp at 2 h: 0.53 ± 0.05
[9]; Liver Kp, liver/plasma concentration ratio, 24 hours
  Kp at 24 h: 17.2
[9]; Lung Concentration, 0.5 hour after administration
  concentration at 0.5 h: 5860 ± 208 ng/mL
[9]; Lung Concentration, 2 hours after administration
  concentration at 2 h: 2820 ± 162 ng/mL
[9]; Lung Concentration, 24 hours after administration
  concentration at 24 h: 736 ± 158 ng/mL
[9]; Lung Kp, lung/plasma concentration ratio, 0.5 hour
  Kp at 0.5 h: 0.32 ± 0.03
[9]; Lung Kp, lung/plasma concentration ratio, 2 hours
  Kp at 2 h: 0.37 ± 0.04
[9]; Lung Kp, lung/plasma concentration ratio, 24 hours
  Kp at 24 h: 5.75
[9]; Plasma Concentration, 0.5 hour after administration
  concentration at 0.5 h: 18200 ± 627 ng/mL
[9]; Plasma Concentration, 2 hours after administration
  concentration at 2 h: 7700 ± 977 ng/mL
[9]; Plasma Concentration, 24 hours after administration
  concentration at 24 h: 51.9 ± 89.9 ng/mL

## CN[C@H](CC(C)C)C(=O)N[C@H]1C(=O)N[C@@H](CC(N)=O)C(=O)N[C@H]2C(=O)N[C@H]3C(=O)N[C@H](C(=O)N[C@H](C(=O)O)c4cc(O)cc(O)c4-c4cc3ccc4O)[C@H](O[C@H]3C[C@](C)(N)[C@@H](O)[C@H](C)O3)c3ccc(c(Cl)c3)Oc3cc2cc(c3O[C@@H]2O[C@H](CO)[C@@H](O)[C@H](O)[C@H]2O[C@H]2C[C@](C)(NCc3ccc(-c4ccc(Cl)cc4)cc3)[C@@H](O)[C@H](C)O2)Oc2ccc(cc2Cl)[C@H]1O [Oritavancin drug substance, oritavancin]
[1]
  minimum inhibitory concentration (MIC): 4 µg/mL and 2 µg/mL
[2]; S. aureus ATCC700787, 1000 cfu/spot
  minimum inhibitory concentration (MIC): 4 µg/mL and 2 µg/mL
[4]
  minimum inhibitory concentration (MIC): 2 µg/mL (≈ 1.12 µM)
[5]; E. faecium SRM1101, 1000 cfu/spot
  minimum inhibitory concentration (MIC): 2 µg/mL and 4 µg/mL
[6]
  minimum inhibitory concentration (MIC): 2 µg/mL and 1 µg/mL
[7]
  minimum inhibitory concentration (MIC): 2 µg/mL and 1 µg/mL
[8]; [11]
  CL tot: 0.989 ± 0.049 mL/min/kg
  T1/2: 2.2 ± 1.3 h
[9]; 0.5 hour after administration
  Kidney Concentration: 10300 ± 1090 ng/mL
  Liver Concentration: 14800 ± 1230 ng/mL
  Lung Concentration: 15100 ± 563 ng/mL
  Plasma Concentration: 34400 ± 4550 ng/mL
[9]; 2 hours after administration
  Kidney Concentration: 8720 ± 538 ng/mL
  Liver Concentration: 24900 ± 1400 ng/mL
  Lung Concentration: 10100 ± 1010 ng/mL
  Plasma Concentration: 14900 ± 1710 ng/mL
[9]; 24 hours after administration
  Kidney Concentration: 4090 ± 462 ng/mL
  Liver Concentration: 38500 ± 2780 ng/mL
  Lung Concentration: 3790 ± 388 ng/mL
  Plasma Concentration: 63.9 ± 12.0 ng/mL
[9]; kidney/plasma concentration ratio, 0.5 hour
  Kidney Kp: 0.30 ± 0.04
[9]; kidney/plasma concentration ratio, 2 hours
  Kidney Kp: 0.59 ± 0.05
[9]; kidney/plasma concentration ratio, 24 hours
  Kidney Kp: 66.12 ± 17.05
[9]; liver/plasma concentration ratio, 0.5 hour
  Liver Kp: 0.44 ± 0.08
[9]; liver/plasma concentration ratio, 2 hours
  Liver Kp: 1.68 ± 0.10
[9]; liver/plasma concentration ratio, 24 hours
  Liver Kp: 611.35 ± 72.9
[9]; lung/plasma concentration ratio, 0.5 hour
  Lung Kp: 0.44 ± 0.07
[9]; lung/plasma concentration ratio, 2 hours
  Lung Kp: 0.68 ± 0.09
[9]; lung/plasma concentration ratio, 24 hours
  Lung Kp: 61.19 ± 15.12
